The target of data set [1] is T1, human α1-GABAA receptor (α1-GABAAR-HEK293 cells) (Homo sapiens, UniProt P14867+P18507).
T1 construct: expressed in transfected cells
The experiment in a line: Whole-cell patch-clamp electrophysiology, positive allosteric modulatory activity on α1-GABAA receptor. In kind it is cell-based. The following applies: read-out: α1-GABAA positive allosteric modulatory activity.

Data set [2] addresses T2, human α2-GABAA receptor (α2-GABAAR-HEK293 cells) (Homo sapiens, UniProt P18507+P47869).
T2 construct: expressed in transfected cells
The experiment in a line: Whole-cell patch-clamp electrophysiology, positive allosteric modulatory activity on α2-GABAA receptor. In kind it is cell-based. The conditions noted are these: read-out: α2-GABAA positive allosteric modulatory activity. In general terms: In patch-clamp work, channel activity is measured electrically.

Data set [3] relates to Chinese hamster ovary cells (CHO-WBL cells). The experiment in a line: In vitro micronucleus assay. The following applies: 3-hour treatment with S9, 3-hour and 24-hour treatment without S9; overall judgment. The format is cell-based. The source says:
The experimental design is based on the experimental purpose and follows the following experimental design guidelines: • (1) OECD Guidelines for the Testing of Chemicals 487, In Vitro Mammalian Cell Micronucleus Test, revised in 2016; • (2) ICH S2 (R1): Guideline on Genotoxicity Testing and Data Interpretation for Pharmaceuticals Intended for Human Use, validated in November 2011.
Experimental system and selection rationale: Chinese hamster ovary cells (CHO-WBL cells) were used as an experimental system in this experiment. The cell line has a karyotype containing 21 chromosomes and a growth cycle of 12 to 13 hours. CHO-WBL cells were originally derived from Dr. S. Wolff at the University of California in San Francisco, USA, then cloned in the laboratory of Dr. A. Bloom at Columbia University in New York, and cloned again by Dr. S. Galloway at Litton Bionetics Laboratory in Maryland. The cell stock solution was stored in liquid nitrogen. The karyotype of each batch of cell stock solution was identified, and tests confirmed that it was free from mycoplasma contamination. The number of passages after cell cloning will not exceed 15. Chinese hamster ovary cells were chosen because the cell line is recommended for use in OECD Guidelines for the Testing of Chemicals 487 and has been proven to be sensitive to a variety of clastogens/aneugens (Marilyn J. et al., 2006).
Medium and cell growth conditions: Chinese hamster ovary cells were cultured in McCoy's 5A complete medium (McCoy's 5A complete medium supplemented with 10 vt % fetal bovine serum, 2 mM GlutaMAX™ medium, 100 units/mL penicillin, and 100 μg/mL streptomycin), and grown in a standard environment (a high-humidity incubator with a temperature of 37° C. and a CO2 concentration of 5%). The day before administration, CHO-WBL cells in exponential growth phase were inoculated onto an eight-well cell culture slide at a density of 8×10^3 cells/400 μL McCoy's 5A complete medium/well.
Metabolic activation system: The in vitro metabolic activation system (Maron and Ames, 1983) contains a rat liver microsomal homogenate induced by β-naphthoflavone and phenobarbital (referred to as S9) and an NADPH-generating system (i.e., NADP disodium and isocitric acid trisodium). S9 was purchased from CHI Scientific, Inc. and stored in a −75° C. refrigerator prior to use. Preparation method for S9 homogenate: Male Sprague Dawley rats were intraperitoneally injected with a single dose of p-naphthoflavone and phenobarbital, followed by material preparation.
Preparation of S9 metabolic activation system: NADP disodium salt and isocitric acid trisodium salt were first dissolved in serum-free medium to prepare a core solution, which was then filtered through a 0.22 µm filter to sterilize. Immediately before use, the S9 homogenate was thawed, and the components of the S9 metabolic activation system were mixed in the proportions shown in Table 2 below.
Dose exploration experiment: In the dose exploration experiment, 8 administration concentrations were established in each administration treatment series. For each concentration of the test substance, 1 well of cells was set up. According to the ICH S2 (R1) guidelines, when not limited by the solubility of the test substance in the solvent/medium or the cytotoxicity of the test substance, the recommended maximum concentration is 1 mM or 0.5 mg/mL, whichever is lower. However, when limited by solubility, the test maximum concentration is the minimum concentration at which a small amount of precipitate is visible in the medium under the microscope. To ensure that the upper limit of solubility in the medium can be reached, up to 4 concentrations with visible precipitate can be tested.

Data set [4] concerns the target T3, human α2-GABAA receptor (BZD site, membrane protein of HEK293 cells) (Homo sapiens, UniProt P18507+P47869).
T3 construct: expressed in transfected cells
In words: Radioligand competitive binding assay (3H-flunitrazepam) at the BZD site of the α2-GABAA receptor. The following applies: competition with 1 nM 3H-flunitrazepam; Ki calculated from IC50; read-out: α2 Ki.

Regarding `CCn1cnc2c(-c3ccc(F)c(-c4ccc(S(=O)(=O)CC)cc4OC)c3)cnnc21` [CVL-865, reference compound], the activation at 0.1 µM in data set [1] and in data set [2] was 100% each time. Further, the “Results of in vitro micronucleus assay” value in data set [3] was “Positive”.

In general, Ki refers to a dissociation constant, usually derived from enzyme kinetics or from competition with a known ligand. For `CCn1cnc2c(-c3ccc(F)c(-c4cc5oc(C)nc5cc4OC)c3)cnnc21` [Example 133, 6-(5-(7-Ethyl-7H-imidazo[4,5-c]pyridazin-4-yl)-2-fluorophenyl)-5-methoxy-2-methylbenzo[d]oxazole], in data set [4], the inhibition constant Ki was 0.0127 µM. Besides, the activation at 0.1 µM in data set [1] came out at 16%; in data set [2] it was 130%.

In the case of `CCn1cnc2c(-c3ccc(F)c(-c4cc5cccnc5cc4OC)c3)cnnc21` [Example 139, 6-(5-(7-Ethyl-7H-imidazo[4,5-c]pyridazin-4-yl)-2-fluorophenyl)-7-methoxyquinoline], the inhibitory constant (Ki) in data set [4] is 0.0132 µM. For the same molecule, the activation at 0.1 µM in data set [1] was determined as 35%; in data set [2], 122%.

In the case of `CCn1cnc2c(-c3ccc(F)c(-c4cc5cn(C)nc5cc4OC)c3)cnnc21` [Example 141, 7-Ethyl-4-(4-fluoro-3-(6-methoxy-2-methyl-2H-indazol-5-yl)phenyl)-7H-imidazo[4,5-c]pyridazine], the Ki in data set [4] was 0.00915 µM. The activation at 0.1 µM in data set [1] was found to be 37%; in data set [2] it was 105%.

For the molecule `CCn1cnc2c(-c3ccc(F)c(-c4cc5cnn(C)c5cc4OC)c3)cnnc21` [Example 142, 7-Ethyl-4-(4-fluoro-3-(6-methoxy-1-methyl-1H-indazol-5-yl)phenyl)-7H-imidazo[4,5-c]pyridazine], the Ki in data set [4] is 0.00454 µM. Further, the activation at 0.1 µM in data set [1] is 36%; in data set [2] it was 99%.

As to `CCn1cnc2c(-c3ccc(F)c(-c4ccc5c(nnn5C5CCOC5)c4COC)c3)cnnc21` (stereo not drawn) [Example 157, 7-Ethyl-4-(4-fluoro-3-(4-(methoxymethyl)-1-(tetrahydrofuran-3-yl)-1H-benzo[d][1,2,3]triazol-5-yl)phenyl)-7H-imidazo[4,5-c]pyridazine], the inhibitory constant (Ki) in data set [4] is 0.0233 µM. For the same molecule, the figures for the activation at 0.1 µM in data set [1] and in data set [2] were 50% and 99%, respectively.

`CCn1cnc2c(-c3ccc(F)c(-c4cc5cncnc5cc4OC)c3)cnnc21` [Example 164, 6-(5-(7-Ethyl-7H-imidazo[4,5-c]pyridazin-4-yl)-2-fluorophenyl)-7-methoxyquinazoline]: the inhibitory constant (Ki) in data set [4] was 0.00924 µM. Further, the activation at 0.1 µM worked out at 29% in data set [1] and 122% in data set [2].

Consider `CCn1cnc2c(-c3ccc(F)c(-c4cc5cc(COC)c(=O)n(C)c5cc4OC)c3)cnnc21` [Example 166, 6-(5-(7-Ethyl-7H-imidazo[4,5-c]pyridazin-4-yl)-2-fluorophenyl)-7-methoxy-3-(methoxymethyl)-1-methylquinolin-2(1H)-one], for which, in data set [4], the Ki was 0.00239 µM. Moreover, the figures for the activation at 0.1 µM in data set [1] and in data set [2] were 12% and 128%, respectively.

Consider `CCN1C(=O)Cc2cc(-c3cc(-c4cnnc5c4ncn5CC)ccc3F)c(OC)cc21` [Example 167, 1-Ethyl-5-(5-(7-ethyl-7H-imidazo[4,5-c]pyridazin-4-yl)-2-fluorophenyl)-6-methoxyindol-2-one], for which the inhibition constant (Ki) in data set [4] is 0.0139 µM. Further, the activation at 0.1 µM in data set [1] is 35%; in data set [2], 125%.

Values taken from patent US20260159519A1, “IMIDAZOPYRIDAZINE SUBSTITUTED BENZENE RING DERIVATIVE, PREPARATION METHOD, PHARMACEUTICAL COMPOSITION AND USE” (SHANGHAI SIMR BIOTECHNOLOGY CO., LTD., priority 2022, published 2026).
